From patent publication US20250228835A1, “PYRIDINYLOXYPYRIDINES AND RELATED COMPOUNDS AND THEIR USE IN TREATING MEDICAL CONDITIONS” (Rectify Pharmaceuticals, Inc., priority 2024, published 2025)

Experiments:
ABCA4 P1380L = molecular target: T1, ABCA4 P1380L (Homo sapiens, UniProt P78363, P1380L); test: A4 correction dose-response assay: ABCA4 P1380L HiBit protein expression; type: cell-based; details: HEK-293 cells stably expressing HiBit-tagged ABCA4 P1380L; 24 h treatment; top concentration 30 μM; read-out: ABCA4 P1380L EC50, Emax
T1 construct: expressed in transfected cells
Outline: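 Cells transfected with HiBit-tagged human ABCA4 P1380L cDNA were treated for 24 h at 37°C with an eleven-point dilution series (top final 30 μM, 0.3% DMSO).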

ABCB4 WT = molecular target: T2, ABCB4 WT (Homo sapiens, UniProt P21439); test: ABCB4 WT assay: HiBit protein expression; type: cell-based; details: HEK-293 cells stably expressing HiBit-tagged ABCB4 WT; 24 h treatment; top concentration 30 μM; read-out: ABCB4 WT EC50, Emax
T2 construct: expressed in transfected cells
Outline: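 HEK-293 cells stably expressing HiBit-tagged human ABCB4 WT, treated 24 h at 37 °C with 11-dose 3-fold dilutions, top final 30 μM in 0.3% DMSO. HiBit lytic reagent luminescence read after 1 h at 25 °C; Emax and EC50 derived.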

T2 sequence (P21439 whole entry): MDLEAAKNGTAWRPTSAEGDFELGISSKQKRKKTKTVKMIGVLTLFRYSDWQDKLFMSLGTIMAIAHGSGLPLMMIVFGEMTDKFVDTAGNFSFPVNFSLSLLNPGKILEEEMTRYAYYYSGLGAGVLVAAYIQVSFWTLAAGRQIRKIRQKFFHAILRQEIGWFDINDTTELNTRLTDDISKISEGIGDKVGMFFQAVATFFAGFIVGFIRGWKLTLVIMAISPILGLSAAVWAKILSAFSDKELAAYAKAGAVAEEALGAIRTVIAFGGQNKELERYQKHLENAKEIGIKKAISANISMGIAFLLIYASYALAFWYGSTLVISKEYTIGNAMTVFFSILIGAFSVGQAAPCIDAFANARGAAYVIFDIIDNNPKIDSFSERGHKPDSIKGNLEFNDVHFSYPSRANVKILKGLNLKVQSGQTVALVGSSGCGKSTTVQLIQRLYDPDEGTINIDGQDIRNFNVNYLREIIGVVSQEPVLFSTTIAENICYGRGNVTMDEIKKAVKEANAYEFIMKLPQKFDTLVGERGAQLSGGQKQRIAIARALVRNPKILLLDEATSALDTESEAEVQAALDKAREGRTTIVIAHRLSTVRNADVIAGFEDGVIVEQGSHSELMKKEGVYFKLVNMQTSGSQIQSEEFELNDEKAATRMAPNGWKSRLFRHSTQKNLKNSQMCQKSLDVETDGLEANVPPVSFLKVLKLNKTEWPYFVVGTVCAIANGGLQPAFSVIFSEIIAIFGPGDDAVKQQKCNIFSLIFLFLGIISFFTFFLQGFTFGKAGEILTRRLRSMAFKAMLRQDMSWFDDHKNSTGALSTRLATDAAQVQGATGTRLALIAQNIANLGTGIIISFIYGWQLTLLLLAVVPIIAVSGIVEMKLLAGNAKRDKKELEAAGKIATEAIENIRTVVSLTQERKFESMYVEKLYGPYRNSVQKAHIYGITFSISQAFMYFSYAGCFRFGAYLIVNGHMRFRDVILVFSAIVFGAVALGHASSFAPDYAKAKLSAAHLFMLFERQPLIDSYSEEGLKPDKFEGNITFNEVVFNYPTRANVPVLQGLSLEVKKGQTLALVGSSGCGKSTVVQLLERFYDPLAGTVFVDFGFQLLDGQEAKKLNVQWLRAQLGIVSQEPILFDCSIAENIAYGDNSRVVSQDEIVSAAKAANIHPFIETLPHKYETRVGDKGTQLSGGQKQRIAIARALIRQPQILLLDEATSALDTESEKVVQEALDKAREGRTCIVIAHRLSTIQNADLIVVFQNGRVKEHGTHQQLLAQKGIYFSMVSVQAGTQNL
T1 sequence (P78363 whole entry P1380L): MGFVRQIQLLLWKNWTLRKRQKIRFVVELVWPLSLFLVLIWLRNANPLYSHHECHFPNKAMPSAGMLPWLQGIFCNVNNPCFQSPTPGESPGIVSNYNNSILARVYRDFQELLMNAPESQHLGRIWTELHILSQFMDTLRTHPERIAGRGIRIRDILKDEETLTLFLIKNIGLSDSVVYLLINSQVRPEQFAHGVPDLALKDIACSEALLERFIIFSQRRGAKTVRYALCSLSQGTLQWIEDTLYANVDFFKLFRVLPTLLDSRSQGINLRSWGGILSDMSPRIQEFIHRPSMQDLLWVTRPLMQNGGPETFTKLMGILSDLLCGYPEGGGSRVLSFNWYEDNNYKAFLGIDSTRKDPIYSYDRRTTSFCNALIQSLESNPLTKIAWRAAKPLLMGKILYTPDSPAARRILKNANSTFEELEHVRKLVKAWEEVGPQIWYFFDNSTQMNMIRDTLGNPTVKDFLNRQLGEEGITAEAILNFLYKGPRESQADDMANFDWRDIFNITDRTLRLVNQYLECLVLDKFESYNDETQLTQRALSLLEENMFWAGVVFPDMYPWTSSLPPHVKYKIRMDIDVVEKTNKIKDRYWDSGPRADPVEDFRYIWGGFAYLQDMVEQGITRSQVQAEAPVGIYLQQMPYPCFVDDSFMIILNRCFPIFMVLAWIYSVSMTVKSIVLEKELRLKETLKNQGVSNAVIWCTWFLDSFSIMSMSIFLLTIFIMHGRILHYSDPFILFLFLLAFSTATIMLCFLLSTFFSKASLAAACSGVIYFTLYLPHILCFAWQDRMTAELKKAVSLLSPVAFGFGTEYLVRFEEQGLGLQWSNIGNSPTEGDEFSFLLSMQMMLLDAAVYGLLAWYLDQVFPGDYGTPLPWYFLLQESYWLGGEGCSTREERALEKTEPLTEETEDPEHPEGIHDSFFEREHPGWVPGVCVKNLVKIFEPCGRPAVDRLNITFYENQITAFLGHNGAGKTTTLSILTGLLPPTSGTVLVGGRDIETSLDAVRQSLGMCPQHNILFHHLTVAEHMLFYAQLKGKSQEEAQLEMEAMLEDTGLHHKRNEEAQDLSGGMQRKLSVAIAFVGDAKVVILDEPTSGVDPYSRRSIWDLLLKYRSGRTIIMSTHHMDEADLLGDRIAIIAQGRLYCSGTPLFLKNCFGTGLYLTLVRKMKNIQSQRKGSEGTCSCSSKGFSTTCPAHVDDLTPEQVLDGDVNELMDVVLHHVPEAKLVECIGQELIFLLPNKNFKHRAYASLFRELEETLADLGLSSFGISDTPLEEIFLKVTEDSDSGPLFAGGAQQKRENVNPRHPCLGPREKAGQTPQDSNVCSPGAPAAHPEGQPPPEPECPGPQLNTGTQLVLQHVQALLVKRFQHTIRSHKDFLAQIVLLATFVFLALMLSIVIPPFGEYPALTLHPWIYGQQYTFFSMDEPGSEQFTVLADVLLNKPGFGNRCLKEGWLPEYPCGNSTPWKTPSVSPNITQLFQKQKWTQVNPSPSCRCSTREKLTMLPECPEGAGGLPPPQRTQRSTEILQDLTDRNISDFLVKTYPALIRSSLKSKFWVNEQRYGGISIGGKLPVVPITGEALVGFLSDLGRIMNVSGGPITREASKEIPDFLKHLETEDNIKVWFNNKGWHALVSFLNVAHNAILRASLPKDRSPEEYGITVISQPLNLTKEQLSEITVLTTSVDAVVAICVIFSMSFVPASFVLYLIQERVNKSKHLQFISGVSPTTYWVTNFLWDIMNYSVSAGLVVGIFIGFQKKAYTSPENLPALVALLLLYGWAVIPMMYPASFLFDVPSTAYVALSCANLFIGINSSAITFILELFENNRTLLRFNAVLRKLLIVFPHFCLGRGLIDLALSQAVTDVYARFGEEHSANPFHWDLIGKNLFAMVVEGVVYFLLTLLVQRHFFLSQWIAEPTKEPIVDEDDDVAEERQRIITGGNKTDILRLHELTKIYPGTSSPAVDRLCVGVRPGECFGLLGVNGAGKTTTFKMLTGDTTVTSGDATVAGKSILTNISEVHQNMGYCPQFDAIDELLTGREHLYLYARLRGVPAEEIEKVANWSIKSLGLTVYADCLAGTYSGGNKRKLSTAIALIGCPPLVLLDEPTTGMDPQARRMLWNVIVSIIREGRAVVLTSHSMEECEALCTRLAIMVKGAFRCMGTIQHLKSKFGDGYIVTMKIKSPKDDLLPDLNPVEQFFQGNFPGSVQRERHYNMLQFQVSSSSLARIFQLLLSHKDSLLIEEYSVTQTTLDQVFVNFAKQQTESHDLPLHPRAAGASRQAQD

Row | Structure (SMILES) | EC50 (ABCA4 P1380L) | EC50 (ABCB4 WT)
1 | Cc1nc(C)c(Oc2nc(-c3cncc(C#N)c3)ccc2NS(C)(=O)=O)c(C2CC2)n1 [Compound I-165] | 1000 to 10000 nM | 1000 to 10000 nM
2 | Cc1cc(C(F)F)nc(C)c1Oc1nc(-c2cncc(C3COC3)c2)ccc1NS(C)(=O)=O [Compound I-197] | 1000 to 10000 nM | < 1000 nM
3 | CNS(=O)(=O)c1ccc(-c2cncc(C#N)c2)nc1Oc1c(C)cc(C(F)(F)F)nc1C [Compound I-168] | 1000 to 10000 nM | 1000 to 10000 nM
4 | Cc1nc(N2CC(S(C)(=O)=O)C2)nc(C)c1Oc1nc(-c2cncc(C#N)c2)ccc1NS(C)(=O)=O [Compound I-169] | 1000 to 10000 nM | 1000 to 10000 nM
5 | Cc1cc(C)c(Oc2nc(-c3cncc(C4CN(C)C4)c3)ccc2NS(C)(=O)=O)c(C)n1 [Compound I-194] | 10000 to 25000 nM | ≥ 25000 nM
6 | Cc1cc(Oc2nc(-c3cncc(C#N)c3)ccc2NS(C)(=O)=O)nn1C [Compound I-113] | < 25000 nM | < 25000 nM
7 | Cc1cc(C)c(Oc2nc(-c3cncc(C#N)c3)ccc2N(C)S(C)(=O)=O)c(C)n1 [Compound I-166] | 1000 to 10000 nM | 1000 to 10000 nM
8 | Cc1cc(OC2CC2)nc(C)c1Oc1nc(-c2cncc(C#N)c2)ccc1NS(C)(=O)=O [Compound I-132] | < 1000 nM | < 1000 nM
9 | Cc1cc(C)c(Oc2nc(-c3cncc(C#N)c3)ccc2NS(C)(=O)=O)c(OC2CC2)n1 [Compound I-176] | < 1000 nM | < 1000 nM
10 | Cc1cc(C)c(Oc2nc(-c3cnn(C)c3)ccc2NS(C)(=O)=O)c(C)c1 [Compound I-14] | > 25000 nM | ≥ 25000 nM
11 | Cc1cc(C(F)F)nc(C)c1Oc1nc(-c2cncc(C#N)c2)ccc1NS(=O)(=O)C1CC1 [Compound I-199] | < 1000 nM | < 1000 nM
12 | Cc1nc(C2CC2)nc(C)c1Oc1nc(-c2cncc(C#N)c2)ccc1NS(C)(=O)=O [Compound I-183] | < 1000 nM | < 1000 nM
13 | Cc1nc(C2CCC2)nc(C)c1Oc1nc(-c2cncc(C#N)c2)ccc1NS(C)(=O)=O [Compound I-181] | < 1000 nM | < 1000 nM
14 | Cc1nc(C(F)F)nc(C)c1Oc1nc(-c2cncc(C#N)c2)ccc1NS(C)(=O)=O [Compound I-173] | < 1000 nM | < 1000 nM
15 | Cc1nc(OC2CC2)c(C(F)(F)F)cc1Oc1nc(-c2cncc(C#N)c2)ccc1NS(C)(=O)=O [Compound I-178] | > 25000 nM | < 1000 nM
16 | Cc1cc(C)c(Oc2nc(-c3cc[nH]c(=O)c3)ccc2NS(C)(=O)=O)c(C)n1 [Compound I-187] | > 25000 nM | ≥ 25000 nM
17 | Cc1nn(C)c(C)c1Oc1nc(-c2cncc(C#N)c2)ccc1NS(C)(=O)=O [Compound I-115] | < 25000 nM | < 1000 nM

The remaining lines, values ahead:

Row | EC50 (ABCA4 P1380L) | EC50 (ABCB4 WT) | Structure (SMILES)
18 | < 1000 nM | < 1000 nM | Cc1cc(C(F)F)nc(C)c1Oc1nc(-c2ccnc(C#N)c2)ccc1NS(C)(=O)=O [Compound I-204]
19 | < 1000 nM | < 1000 nM | CCS(=O)(=O)Nc1ccc(-c2cncc(C#N)c2)nc1Oc1c(C)cc(C(F)(F)F)nc1C [Compound I-217]
20 | < 1000 nM | < 25000 nM | Cc1cc(C(F)F)nc(C)c1Oc1nc(-c2cncc(Cl)c2)ccc1NS(C)(=O)=O [Compound I-202]
21 | < 1000 nM | < 1000 nM | Cc1cc(C2CCC2)nc(C)c1Oc1nc(-c2cncc(C#N)c2)ccc1NS(C)(=O)=O [Compound I-208]
22 | < 1000 nM | < 25000 nM | Cc1cc(C(F)F)nc(C)c1Oc1nc(-c2ccnc(C#N)c2)ccc1NS(=O)(=O)C1CC1 [Compound I-203]
23 | 1000 to 10000 nM | < 25000 nM | Cc1nc(C)c(C2CC2)cc1Oc1nc(-c2cncc(C#N)c2)ccc1NS(C)(=O)=O [Compound I-229]
24 | < 1000 nM | < 1000 nM | Cc1cc(C(F)(F)F)nc(C)c1Oc1nc(-c2cncc(C#N)c2)ccc1NS(=O)(=O)C1CC1 [Compound I-218]
25 | < 1000 nM | < 1000 nM | Cc1cc(C2CC2)nc(C)c1Oc1nc(-c2ccnc(C#N)c2)ccc1NS(C)(=O)=O [Compound I-213]
26 | < 25000 nM | < 25000 nM | COC(=O)c1cncc(-c2ccc(NS(C)(=O)=O)c(Oc3cc(C)n(C)n3)n2)c1 [Compound I-206]
27 | < 1000 nM | < 25000 nM | Cc1cc(C)c(Oc2nc(-c3cncc(Cl)c3)ccc2NS(=O)(=O)C2COC2)c(C)n1 [Compound I-237]
28 | 1000 to 10000 nM | < 25000 nM | Cc1cc(C)c(Oc2nc(-c3cncc(CO)c3)ccc2NS(C)(=O)=O)c(C)n1 [Compound I-227]
29 | > 25000 nM | < 1000 nM | Cc1cc(Oc2nc(-c3cncc(C#N)c3)ccc2NS(C)(=O)=O)c(C)nc1C [Compound I-226]
30 | 10000 to 25000 nM | < 1000 nM | Cc1cc(C)c(Oc2nc(-c3ccnc(C#N)c3)ccc2NS(=O)(=O)C2CC2)c(C)n1 [Compound I-211]
31 | < 1000 nM | < 1000 nM | COc1nc(C)cc(C)c1Oc1nc(-c2cncc(C#N)c2)ccc1NS(C)(=O)=O [Compound I-209]
